Assay results reported in the NIST ThermoML archive (doi:10.1021/je900596d).

Conditions: Vibrating tube method

FC(F)=C(F)C(F)(F)F [hexafluoropropene]
Conditions | mass density [kg/m3]
357.01 K, 9852.5 kPa, Liquid | 1135.74
357.01 K, 9892.6 kPa, Liquid | 1136.38
357.01 K, 9933 kPa, Liquid | 1137.03
357.01 K, 9973.2 kPa, Liquid | 1137.69
357.06 K, 1.6 kPa, Fluid (supercritical or subcritical phases) | 0.18
357.06 K, 3.4 kPa, Fluid (supercritical or subcritical phases) | 0.25
357.06 K, 4.2 kPa, Fluid (supercritical or subcritical phases) | 0.26
357.06 K, 4.9 kPa, Fluid (supercritical or subcritical phases) | 0.29
357.06 K, 6.3 kPa, Fluid (supercritical or subcritical phases) | 0.31
357.06 K, 6.6 kPa, Fluid (supercritical or subcritical phases) | 0.32
357.06 K, 7 kPa, Fluid (supercritical or subcritical phases) | 0.35
357.06 K, 7.4 kPa, Fluid (supercritical or subcritical phases) | 0.43
357.06 K, 9.1 kPa, Fluid (supercritical or subcritical phases) | 0.47
357.06 K, 9.5 kPa, Fluid (supercritical or subcritical phases) | 0.49
357.06 K, 11 kPa, Fluid (supercritical or subcritical phases) | 0.56
357.06 K, 12.4 kPa, Fluid (supercritical or subcritical phases) | 0.6
357.06 K, 13.5 kPa, Fluid (supercritical or subcritical phases) | 0.66
357.06 K, 14.9 kPa, Fluid (supercritical or subcritical phases) | 0.76
357.06 K, 15.9 kPa, Fluid (supercritical or subcritical phases) | 0.79
357.06 K, 17 kPa, Fluid (supercritical or subcritical phases) | 0.85
357.06 K, 19.1 kPa, Fluid (supercritical or subcritical phases) | 0.98
357.06 K, 21.6 kPa, Fluid (supercritical or subcritical phases) | 1.08
357.06 K, 22.7 kPa, Fluid (supercritical or subcritical phases) | 1.11
357.06 K, 24 kPa, Fluid (supercritical or subcritical phases) | 1.15
357.06 K, 25.1 kPa, Fluid (supercritical or subcritical phases) | 1.25
357.06 K, 26.3 kPa, Fluid (supercritical or subcritical phases) | 1.3
357.06 K, 27.3 kPa, Fluid (supercritical or subcritical phases) | 1.36
357.06 K, 28.4 kPa, Fluid (supercritical or subcritical phases) | 1.4
357.06 K, 29.7 kPa, Fluid (supercritical or subcritical phases) | 1.46
357.06 K, 30.8 kPa, Fluid (supercritical or subcritical phases) | 1.51
357.06 K, 31.8 kPa, Fluid (supercritical or subcritical phases) | 1.61
357.06 K, 34 kPa, Fluid (supercritical or subcritical phases) | 1.66
357.06 K, 35.1 kPa, Fluid (supercritical or subcritical phases) | 1.71
357.06 K, 36.4 kPa, Fluid (supercritical or subcritical phases) | 1.75
357.06 K, 37.5 kPa, Fluid (supercritical or subcritical phases) | 1.84
357.06 K, 38.5 kPa, Fluid (supercritical or subcritical phases) | 1.93
357.06 K, 39.6 kPa, Fluid (supercritical or subcritical phases) | 1.96
357.06 K, 40.6 kPa, Fluid (supercritical or subcritical phases) | 2.02
357.06 K, 48 kPa, Fluid (supercritical or subcritical phases) | 2.38
357.06 K, 58.6 kPa, Fluid (supercritical or subcritical phases) | 2.86
357.06 K, 69.5 kPa, Fluid (supercritical or subcritical phases) | 3.37
357.06 K, 80.9 kPa, Fluid (supercritical or subcritical phases) | 3.92
357.06 K, 92.8 kPa, Fluid (supercritical or subcritical phases) | 4.57
357.06 K, 104.1 kPa, Fluid (supercritical or subcritical phases) | 5.19
357.06 K, 115 kPa, Fluid (supercritical or subcritical phases) | 5.66
357.06 K, 125.7 kPa, Fluid (supercritical or subcritical phases) | 6.22
357.06 K, 136.4 kPa, Fluid (supercritical or subcritical phases) | 6.83
357.06 K, 148.3 kPa, Fluid (supercritical or subcritical phases) | 7.41
357.06 K, 159.2 kPa, Fluid (supercritical or subcritical phases) | 8.05
357.06 K, 170 kPa, Fluid (supercritical or subcritical phases) | 8.65
357.06 K, 180.8 kPa, Fluid (supercritical or subcritical phases) | 9.19
357.06 K, 191.6 kPa, Fluid (supercritical or subcritical phases) | 9.77
357.06 K, 206.8 kPa, Fluid (supercritical or subcritical phases) | 10.67
357.06 K, 232.7 kPa, Fluid (supercritical or subcritical phases) | 11.91
357.06 K, 245.6 kPa, Fluid (supercritical or subcritical phases) | 12.63
357.06 K, 258.5 kPa, Fluid (supercritical or subcritical phases) | 13.31
357.06 K, 271.2 kPa, Fluid (supercritical or subcritical phases) | 14.01
357.06 K, 284 kPa, Fluid (supercritical or subcritical phases) | 14.69
357.06 K, 296.8 kPa, Fluid (supercritical or subcritical phases) | 15.39
357.06 K, 309.5 kPa, Fluid (supercritical or subcritical phases) | 16.12
357.06 K, 322.1 kPa, Fluid (supercritical or subcritical phases) | 16.71
357.06 K, 334.9 kPa, Fluid (supercritical or subcritical phases) | 17.44
357.06 K, 347.5 kPa, Fluid (supercritical or subcritical phases) | 18.11
357.06 K, 360.2 kPa, Fluid (supercritical or subcritical phases) | 18.86
357.06 K, 372.7 kPa, Fluid (supercritical or subcritical phases) | 19.48
357.06 K, 385.4 kPa, Fluid (supercritical or subcritical phases) | 20.16
357.06 K, 401.9 kPa, Fluid (supercritical or subcritical phases) | 21.1
